# Read-outs that look alike come from different tables or passages of the source.
# Columns and labels:
# Varroa destructor = conditions: 1 μg/μL, 1 μL on bee thorax; time not stated (monitored up to 24 hours)
# Procedure: About 300 bees (Apis mellifera) infected with Varroa destructor were taken from a hive superinfected with Varroa destructor. The bees were then placed in a device allowing to detach Varroa mites attached to the bees (device described in Community model n° 003419415-0001) filled with icing sugar. The device was stirred for 2 minutes to sample the Varroa mites attached to the bees. The icing sugar allows to interfere between the bee and the Varroa mite that was attached thereto. Varroa mites were harvested with icing sugar because they pass through the holes in the device, unlike bees. The Varroa mites were then separated from the icing sugar.
# The Varroa mites thus recovered were dispatched in boxes (10 Varroa mites per box).
# The bees were then dispatched in the boxes (10 per box).
# The bees were then put to sleep for a few minutes using CO2 (flow of 3 liters for 20 seconds) in order to deposit 1 μL of compound to be tested on their thorax using a pipette. It should be noted that the bees which received romifidine hydrochloride at a concentration of 10 μg/μL received 2 μL of product. The bees were unconscious for the time the compound to be tested was deposited, that is to say around three minutes, then they woke up.
# After thoracic deposition of the compound to be tested, the 10 bees from the same box were transferred to a box containing the 10 Varroa mites (cf. “Preparation of Varroa mites” above). Liquid sugar was left in each of the boxes to feed the bees during the observations. The series of boxes was then placed in an oven at […] with a humidity of 50% in order to approximate hive conditions as closely as possible.
# The mortality of Varroa mites and bees was then monitored 5 minutes, 2 hours, 4 hours and 24 hours after application of the compound to be tested to the bees. Dead Varroa mites correspond to Varroa mites detached from the bees. Dead bees correspond to bees which no longer move and which are often placed on their thorax.
# The following compositions were applied to the thorax of the bees: • Solvent, • Amitraz at 1 μg/μL in acetone, • Clonidine hydrochloride at 100 μg/μL, 10 μg/μL, 1 μg/μL and 0.1 μg/μL in methanol, • Detomidine hydrochloride monohydrate at 1 μg/μL in methanol, • Dexmedetomidine hydrochloride at 100 μg/μL, 10 μg/μL, 1 μg/μL and 0.1 μg/μL in methanol, • Romifidine hydrochloride at 10 μg/μL and at 5 μg/μL in methanol, • Tizanidine hydrochloride at 1 μg/μL in methanol, • Medetomidine hydrochloride at 0.1 μg/μL in ethanol, • Levomedetomidine hydrochloride at 100 μg/μL, 10 μg/μL, 1 μg/μL and 0.1 μg/μL in methanol, • Octopamine at 1 μg/μL in ethanol. Results
# Ixodes ricinus = experiment: Oral acaricidal test on ticks in membrane feeding wells with treated blood; format: in vivo; conditions: for average percentage of affected adult ticks (convulsion, morbidity or death of ticks): 100 ppm oral; for mortality at 100 ppm: Ixodes ricinus, po
# Procedure: A laboratory study was conducted to determine the oral acaricidal properties of three compounds according to the invention (SN0305, SN0306 and SN0307) against Ixodes ricinus. Each compound was tested at 1, 10 and 100 ppm, and compared to a negative control corresponding to solvent alone (0.1% DMSO). Amitraz at 100 ppm was used as a positive control.
# The Ixodes ricinus ticks (nymphs and adults) were placed for 24 hours on a membrane in feeding wells containing blood mixed with the tested compounds. Tick mortality (number of dead, moribund, or unaffected ticks in each well), attachment to the membrane (number of ticks attached/detached in each well), and the behavior (presence or absence of twitches) were examined 1, 3, 6, 12, 24, 48, 72, and 96 hours after the onset of tick exposure to the compounds.
# Ticks (Ixodes ricinus) were collected. Collected adult females were kept separate from the nymphs and both were placed in sterile tubes in a humidity chamber to provide ˜80% humidity and 17° C. Only healthy ticks (females/nymphs) were chosen for the experiment.
# Batches of 12 adults or nymphs were inserted into the feeding wells. After about 24 hours, their attachment was examined with a brush.
# The efficiency of three compounds (SN0305, SN0306 and SN0307), each tested at three concentrations (1, 10, 100 ppm), was compared to the solvent control (0.1% DMSO, Sigma-Aldrich D-5879; Lot 101K0028) and to the positive control (Amitraze at 100 ppm).
# Silicone-coated membranes with a thickness comprised between 110 and 140 μm were used for the construction of the feeding units.
# Feeding units (sterilized acrylic glass tubes) were placed in feeding wells made of sterilized six-well plates.
# 3.1 ml of sterile 10^−3 M ATP-enriched blood was applied to each feeding well. Feeding wells were then inserted into a heated water bath (FIG. 12) and maintained at 37° C.±2° C.
# Stock solutions of 100,000 ppm were prepared and tenth dilutions were carried out in 0.1% DMSO to reach the desired concentrations. After tick attachment (24 hours after placing the ticks in the feeding wells), 3.1 μl of the solutions were added to each feeding well containing 3.1 ml of blood. Blood was changed after 12 hours with fresh supplementation of the compounds to be tested. The ticks were exposed to the product for a total of 24 hours, after which the blood was again changed to fresh, untreated blood.
# Tick mortality (number of dead, moribund or unaffected ticks in each well), attachment (number of attached/detached ticks in each well) and behavior (presence, absence and intensity of convulsions) were examined 1, 3, 6, 12, 24, 48, 72, and 96 hours after the start of tick exposure to the compound.
compound,measurement,setting,value
Cc1ccc(/N=C/N(C)/C=N/c2ccc(C)cc2C)c(C)c1 [Amitraz],Varroa mites killed / mortality for Varroa mites,Varroa destructor,100%
same,"average percentage of affected adult ticks (convulsion, morbidity or death of ticks)","Ixodes ricinus; adult ticks, 1 h",66.8%
same,"average percentage of affected adult ticks (convulsion, morbidity or death of ticks)","Ixodes ricinus; adult ticks, 3 h",56.2%
same,"average percentage of affected adult ticks (convulsion, morbidity or death of ticks)","Ixodes ricinus; adult ticks, 6 h",53.7%
same,"average percentage of affected adult ticks (convulsion, morbidity or death of ticks)","Ixodes ricinus; adult ticks, 12 h",56.2%
same,"average percentage of affected adult ticks (convulsion, morbidity or death of ticks)","Ixodes ricinus; adult ticks, 24 h",66.5%
same,"average percentage of affected adult ticks (convulsion, morbidity or death of ticks)","Ixodes ricinus; adult ticks, 48 h",83.1%
same,"average percentage of affected adult ticks (convulsion, morbidity or death of ticks)","Ixodes ricinus; adult ticks, 72 h",100.0%
same,"average percentage of affected adult ticks (convulsion, morbidity or death of ticks)","Ixodes ricinus; adult ticks, 96 h",100.0%
same,detachment of adult ticks (in words),"Ixodes ricinus; 100 ppm, adult ticks",strong detachment
same,average percentage of attached adult ticks,"Ixodes ricinus; 100 ppm, adult ticks, 1 h",66.8%
same,average percentage of attached adult ticks,"Ixodes ricinus; 100 ppm, adult ticks, 3 h",56.2%
same,average percentage of attached adult ticks,"Ixodes ricinus; 100 ppm, adult ticks, 6 h",53.7%
same,average percentage of attached adult ticks,"Ixodes ricinus; 100 ppm, adult ticks, 12 h",53.7%
same,average percentage of attached adult ticks,"Ixodes ricinus; 100 ppm, adult ticks, 24 h",53.7%
same,average percentage of attached adult ticks,"Ixodes ricinus; 100 ppm, adult ticks, 48 h",53.7%
same,average percentage of attached adult ticks,"Ixodes ricinus; 100 ppm, adult ticks, 72 h",53.7%
same,average percentage of attached adult ticks,"Ixodes ricinus; 100 ppm, adult ticks, 96 h",53.7%
same,"effect on nymphs (convulsion, morbidity or death), in words","Ixodes ricinus; 100 ppm, nymphs, compared with SN0305, SN0306, SN0307",comparable result
same,mortality at 100 ppm,"Ixodes ricinus; adult ticks, 100 ppm, 1 h, read-out: average percentage of adult tick mortality (moribund or dead adult ticks)",0%
same,mortality at 100 ppm,"Ixodes ricinus; adult ticks, 100 ppm, 3 h, read-out: average percentage of adult tick mortality (moribund or dead adult ticks)",2.8%
same,mortality at 100 ppm,"Ixodes ricinus; adult ticks, 100 ppm, 6 h, read-out: average percentage of adult tick mortality (moribund or dead adult ticks)",10.1%
same,mortality at 100 ppm,"Ixodes ricinus; adult ticks, 100 ppm, 12 h, read-out: average percentage of adult tick mortality (moribund or dead adult ticks)",17.4%
same,mortality at 100 ppm,"Ixodes ricinus; adult ticks, 100 ppm, 24 h, read-out: average percentage of adult tick mortality (moribund or dead adult ticks)",27.7%
same,mortality at 100 ppm,"Ixodes ricinus; adult ticks, 100 ppm, 48 h, read-out: average percentage of adult tick mortality (moribund or dead adult ticks)",58.9%
same,mortality at 100 ppm,"Ixodes ricinus; adult ticks, 100 ppm, 72 h, read-out: average percentage of adult tick mortality (moribund or dead adult ticks)",84.6%
same,mortality at 100 ppm,"Ixodes ricinus; adult ticks, 100 ppm, 96 h, read-out: average percentage of adult tick mortality (moribund or dead adult ticks)",97.5%
same,mortality at 100 ppm,"Ixodes ricinus; nymphs, 100 ppm, 1 h, read-out: average percentage of mortality of tick nymphs (moribund or dead nymphs)",0%
same,mortality at 100 ppm,"Ixodes ricinus; nymphs, 100 ppm, 3 h, read-out: average percentage of mortality of tick nymphs (moribund or dead nymphs)",14%
same,mortality at 100 ppm,"Ixodes ricinus; nymphs, 100 ppm, 6 h, read-out: average percentage of mortality of tick nymphs (moribund or dead nymphs)",38.7%
same,mortality at 100 ppm,"Ixodes ricinus; nymphs, 100 ppm, 12 h, read-out: average percentage of mortality of tick nymphs (moribund or dead nymphs)",74.9%
same,mortality at 100 ppm,"Ixodes ricinus; nymphs, 100 ppm, 24 h, read-out: average percentage of mortality of tick nymphs (moribund or dead nymphs)",100%
same,mortality at 100 ppm,"Ixodes ricinus; nymphs, 100 ppm, 48 h, read-out: average percentage of mortality of tick nymphs (moribund or dead nymphs)",100%
same,mortality at 100 ppm,"Ixodes ricinus; nymphs, 100 ppm, 72 h, read-out: average percentage of mortality of tick nymphs (moribund or dead nymphs)",100%
same,mortality at 100 ppm,"Ixodes ricinus; nymphs, 100 ppm, 96 h, read-out: average percentage of mortality of tick nymphs (moribund or dead nymphs)",100%

# From US12501899B2, “Mite infestation treatment” (priority 2019, dated 2025)
